From US9017719B2, “Injectable drug carrier comprising layered double hydroxide” (Nanohybrid Co., Ltd., priority 2005, dated 2015) come the findings set out here.

The structures appear in SMILES notation.

A short description of this data set: In vivo toxicity test of LDH-MTX hybrid and MTX, intraperitoneal, death rate. The following applies: mouse, ip, Balb/c mice, dosed weekly for three weeks. As to the method:
Like in the in vivo toxicity test of LDH of Example 2, small animal models, Balb/c mice (6-7 weeks old) were purchased and managed in cages (5 mice/cage). MTX was administered intraperitoneally to 10 mice at each concentration of 50, 75, and 100 mg/kg and the LDH-MTX hybrid synthesized in Example 3 was administered intraperitoneally to 10 mice at each concentration of 3, 6, 12.5, 25, 50, 75, and 100 mg/kg. The body weight of each mouse was measured every week for three weeks and a dosage of drug adjusted to the newly measured weight was administered. The body weights of the mice died during the test were excluded from statistical analysis. A death rate with respect to the concentration of MTX is represented by total number of mice survived in FIG. 7a and a death rate with respect to the concentration of the LDH-MTX hybrid is represented by the total number of mice survived in FIG. 7b. […] That is, the lethal dose of the LDH-MTX hybrid was equal to ⅓ of that of MTX.

What is called LD50 is the dose at which mortality reaches 50%.

In turn, `CN(Cc1cnc2nc(N)nc(N)c2n1)c1ccc(C(=O)N[C@@H](CCC(=O)O)C(=O)O)cc1` [MTX, methotrexate] came in with an LD50 at 3 weeks of 75 mg/kg.
